Laboratory results published in the NIST ThermoML archive (doi:10.1016/j.tca.2015.02.020).

Experiment: molar heat capacity at constant pressure; xn = mol fraction of the nth substance listed
Settings: 101 kPa, Liquid, Small sample (50 mg) DSC

CC(O)CN (stereo unspecified) [1-amino-2-propanol] + O
Settings	molar heat capacity at constant pressure [J/K/mol]
207.73 K, x1 = 0.68	127.89
209.98 K, x1 = 0.19	80.53
209.98 K, x1 = 0.26	88.72
210.13 K, x1 = 0.68	136.98
210.14 K, x1 = 0.16	76.29
212.31 K, x1 = 0.16	80.64
212.31 K, x1 = 0.19	81.68
212.31 K, x1 = 0.26	87.41
212.33 K, x1 = 0.15	76.55
212.46 K, x1 = 0.68	129.03
213.3 K, x1 = 0.19	80.82
213.3 K, x1 = 0.26	89.38
213.45 K, x1 = 0.16	76.84
213.45 K, x1 = 0.68	137.55
217.04 K, x1 = 0.19	82.55
217.04 K, x1 = 0.26	88.06
217.05 K, x1 = 0.16	81.72
217.07 K, x1 = 0.15	77.88
217.19 K, x1 = 0.68	129.59
219.93 K, x1 = 0.19	82.26
219.93 K, x1 = 0.26	90.36
220.08 K, x1 = 0.68	136.98
220.09 K, x1 = 0.16	76.56
221.78 K, x1 = 0.19	83.7
221.79 K, x1 = 0.16	83.08
221.79 K, x1 = 0.26	89.71
221.81 K, x1 = 0.15	79.21
221.94 K, x1 = 0.68	130.73
223.25 K, x1 = 0.19	82.84
223.25 K, x1 = 0.26	91.35
226.53 K, x1 = 0.16	84.44
226.53 K, x1 = 0.19	84.86
226.53 K, x1 = 0.26	91.02
226.55 K, x1 = 0.15	80.8
226.68 K, x1 = 0.68	132.44
229.89 K, x1 = 0.26	92.99
231.26 K, x1 = 0.19	86.01
231.26 K, x1 = 0.26	92.34
231.27 K, x1 = 0.16	85.52
231.3 K, x1 = 0.15	82.4
231.42 K, x1 = 0.68	133.57
233.2 K, x1 = 0.26	94.31
236.01 K, x1 = 0.16	86.88
236.01 K, x1 = 0.19	87.46
236.01 K, x1 = 0.26	93.65
236.04 K, x1 = 0.15	83.99
236.16 K, x1 = 0.68	135.28
239.85 K, x1 = 0.26	96.28
240.75 K, x1 = 0.16	88.51
240.75 K, x1 = 0.19	88.61
240.75 K, x1 = 0.26	94.96
240.78 K, x1 = 0.15	85.59
240.9 K, x1 = 0.68	136.98
243.17 K, x1 = 0.26	97.59
245.5 K, x1 = 0.16	89.6
245.5 K, x1 = 0.19	90.05
245.5 K, x1 = 0.26	96.61
245.53 K, x1 = 0.15	87.18
245.64 K, x1 = 0.68	138.69
249.82 K, x1 = 0.26	99.89
250.25 K, x1 = 0.16	90.95
250.25 K, x1 = 0.19	91.5
250.25 K, x1 = 0.26	97.92
250.28 K, x1 = 0.15	88.51
250.4 K, x1 = 0.68	140.39
253.15 K, x1 = 0.26	101.21
255 K, x1 = 0.16	91.77
255 K, x1 = 0.19	92.36
255 K, x1 = 0.26	99.24
255.03 K, x1 = 0.15	89.84
255.14 K, x1 = 0.68	142.67
259.75 K, x1 = 0.16	92.85
259.75 K, x1 = 0.19	93.81
259.75 K, x1 = 0.26	100.55
259.78 K, x1 = 0.15	90.9
259.8 K, x1 = 0.19	95.54
259.8 K, x1 = 0.26	103.51
259.89 K, x1 = 0.68	144.37
259.95 K, x1 = 0.16	93.4
259.95 K, x1 = 0.68	154.04
259.96 K, x1 = 0.15	93.83
263.13 K, x1 = 0.19	96.69
263.13 K, x1 = 0.26	104.82
263.27 K, x1 = 0.68	155.17
263.28 K, x1 = 0.16	94.48
263.29 K, x1 = 0.15	94.62
264.5 K, x1 = 0.16	93.94
264.5 K, x1 = 0.19	94.96
264.5 K, x1 = 0.26	101.87
264.53 K, x1 = 0.15	92.23
264.64 K, x1 = 0.68	146.65
269.26 K, x1 = 0.16	94.48
269.26 K, x1 = 0.19	95.83
269.26 K, x1 = 0.26	103.18
269.29 K, x1 = 0.15	93.29
269.4 K, x1 = 0.68	148.35
269.78 K, x1 = 0.19	98.71
269.79 K, x1 = 0.26	107.45
269.93 K, x1 = 0.68	158.01
269.94 K, x1 = 0.16	96.66
269.95 K, x1 = 0.15	96.75
273.12 K, x1 = 0.19	99.87
273.13 K, x1 = 0.26	108.44
273.27 K, x1 = 0.68	159.15
273.29 K, x1 = 0.15	97.28
273.29 K, x1 = 0.16	97.74
274.05 K, x1 = 0.16	95.3
274.05 K, x1 = 0.19	96.98
274.05 K, x1 = 0.26	104.49
274.09 K, x1 = 0.15	93.83
274.2 K, x1 = 0.68	150.62
278.96 K, x1 = 0.26	105.81
278.97 K, x1 = 0.16	96.11
278.97 K, x1 = 0.19	98.13
279 K, x1 = 0.15	94.89
279.12 K, x1 = 0.68	152.9
280 K, x1 = 0.19	101.02
280.01 K, x1 = 0.26	109.42
280.15 K, x1 = 0.68	160.29
280.17 K, x1 = 0.15	97.81
280.17 K, x1 = 0.16	98.83
283.44 K, x1 = 0.19	101.31
283.44 K, x1 = 0.26	110.08
283.59 K, x1 = 0.68	160.86
283.61 K, x1 = 0.16	99.37
283.62 K, x1 = 0.15	98.08
283.88 K, x1 = 0.16	96.38
283.88 K, x1 = 0.19	97.85
283.88 K, x1 = 0.26	106.79
283.92 K, x1 = 0.15	95.42
284.02 K, x1 = 0.68	155.17
